Test results as given in patent EP0133534A2, “Pyridyl compounds” (THE WELLCOME FOUNDATION LIMITED, priority 1983, dated 1985).

Legend:
[1] = tested on: histamine; test: In vitro antihistaminic activity: shift of histamine concentration-response curves in isolated guinea-pig ileum longitudinal muscle (Schild plot); assay type: biochemical, guinea-pigs; details: negative log of molar antagonist concentration shifting the control histamine concentration-response curve 2X to the right; tissue incubated one hour with test compound; 60 min
Procedure: A.Invitro antihistaminic activity: The longitudinal muscle was isolated from the intact ileum of guinea-pigs (Harley, male 250-400 g) and placed in an organ bath under 300 mg tension. After one hour of equilibration, cumulative concentration-response curves (Van Rossum, J.M., Arch. Int. Pharmacodyn. Ther. 143 299-330,1963) to histamine were obtained. Following washing, the tissues were incubated for one hour with the test compound and then a second histamine concentration-response curve was run. Shifts to the right of the agonist concentration-response curve produced by the antagonists were used to construct Schild plots (Arunlakshana, O. and Schild, H.O., Br. J. Pharmacol: 14, 48-58, 1959). Regression of Log (dr-1) on Log/B/, where dr is an equiactive response in the presence and absence of antagonist and /B/ is the molar concentration of antagonist, allowed an estimate of pA2, i.e. the negative log of the. concentration of antagonist which shifts the control histamine concentration-response curve 2X to the right.
The antihistaminic activities of compounds of the present invention are detailed in table A below.

[2] = tested on: histamine; details: metabolite of triprolidine in man; known from prior art; cited from earlier work

Structure (SMILES)	pA2 [1]	antihistamine activity [2]
O=S(=O)(O)c1cccc(/C(=C/CN2CCCC2)c2ccccc2)c1 [Example 2, (E)-3-(1-phenyl-3-pyrrolidinoprop-1-enyl)-benzenesulphonic Acid]	7.1	–
Cc1ccc(/C(=C\CN2CCCC2)c2cccc(/C=C/c3nnn[nH]3)n2)cc1 [Example 1, 5-(E-6-[3-pyrrolidino-1-(4-tolyl)prop-1E-enyl]-2-pyridylvinyl)-1H-tetrazole]	8.7	–
O=C(O)c1ccc(/C(=C\CN2CCCC2)c2ccccn2)cc1 [(E)-1-(4-carboxyphenyl)-1-(2-pyridyl)-3-pyrrolidinoprop-1-ene]	–	little or no antihistamine activity
O=S(=O)(O)c1cccc(C(CCN2CCCC2)c2ccccc2)c1 (stereo not shown) [Example 3, 3-(1-phenyl-3-pyrrolidinopropyl) benzenesulphonic acid]	7.3	–
